Reference: patent publication US10307418B2, “Azole pharmaceutical formulations for parenteral administration and methods for preparing and using the same as treatment of diseases sensitive to azole compounds” (Platform Brightworks Two, Ltd., priority 2010, dated 2019)
In brackets after ≈: the same amount, converted by molar mass. Several values for one entry are separate records, joined by “and”; a condition that tells them apart may be missing. Equal entries are not always repeated. Where two headings read alike, the source gives them in different places.

Tests used:
[1] = Maximum solubility of ITZA and azole analogues in solvents (HPLC); format: physicochemical; settings: for solubility at 30 min: organic solvent or mixture, thermodynamic from solid
Procedure: ITZA and its analogues were dissolved in various solvents incubated at 37° C. for 30 minutes, cooled down to room temperature, centrifuged at 14,000 rpm for 1 min. The supernatant was analyzed using HPLC to determine the maximum solubility of ITZA and its azole analogues.
In a first step the maximum ITZA solubility in various single solvents was determined. To this end, ITZA and its analogs were dissolved in various solvents, incubated at 37° C. for 30 minutes, cooled down to room temperature, centrifuged at 14,000 rpm for 1 min. The supernatant was analyzed using HPLC to determine the maximum solubility of the respective agent.
The solubility of ITZA was determined in several individual vehicles. Briefly, a known amount of ITZA drug, formulated as a powder (Sigma Inc., St Louis, Mo.), was equilibrated in the respective solvent at RT over 1-4 hours. An aliquot was removed, filtered, and prepared for HPLC to determine maximum solubility at room temperature. Based on the ITZA solubility in each vehicle, different solvents were mixed according to the cosolvency principle in an attempt to arrive at an enhanced stable solubility. […] The stock formulation was then diluted with a final diluent, i.e. NS or D5W or DlOW, to yield a stable use-formulation. The desired range of the final use-formulation was between 1 and 5 mg/mL, as it would result in a final volume that could be safely and conveniently infused intravascularly.
An excess of ITZA as a powder was added to a multitude of chemical solvents (Table 1) at RT. Each mixture was intermittently vortexed, placed in a dark environment and checked visually for up to 4 hours for evidence of solubilization. Following centrifugation to remove solid particles, small samples were withdrawn after consecutive time intervals and the ITZA concentration was determined by HPLC as described.

[2] = Stability of ITZA/POSA in solvent vehicles (HPLC); format: physicochemical; design: POSA concentration: unit: mg/mL; settings: for POSA concentration: single determination
[3] = cited from earlier work
in vivo = settings: both, Swiss Webster, mouse, plasma, iv, 5 mg/kg
Procedure: (§1) Swiss Webster mice were used for pharmacokinetic studies of ITZA and its analogs. The dilation of the vein was accomplished by warming up the mice using a heat lamp. […] Mice were allowed to recover and blood samples were obtained through cardiac puncture under general anesthesia with Isoflurane/oxygen by vaporizer at various time points. Plasma was obtained by centrifugation of blood sample at 3,200 rpm for 5 min. at 4° C. Plasma proteins were precipitated by adding acetonitrile (twice the volume of plasma). The mixture was vortexed for 30 seconds and centrifuged for 5 min. at 14,000 rpm. The supernatant was saved and was injected into the HPLC to determine the respective drug concentrations.
(§2) Unless specified, the analogous experiments were performed using POSA as an alternative to ITZA; Swiss Webster mice of both sexes with a body weight of 25-30 g were used for the in vivo pharmacology experiments (Harlan-Sprague-Dawley, Houston, Tex.). The animals were allowed a minimum of 7 days after arrival to accommodate to the new environment and allowed free access to commercial feed and tap water prior to and during the experimentation period. The animals were housed in an Association for the Assessment and Accreditation of Laboratory Animal Care International (AAALAC)-approved facility that meets the requirements of the USDA, NIH, and DHHS.
(§3) The ITZA dose of 5 mg/kg BW was determined to be a suitable test dose that could be administered to the mice as a slow (3-4 min) IV bolus injection without requiring sedation, but could be performed with only minimal physical restraint of the animals in a standard funnel-type cage.
(§4) The ITZA was formulated in the H3 solvent system described above as the preferred solvent to a stock concentration of 4-5 mg/mL and then diluted with NS (ratio 1:1) so the intended dose (5.0 mg/kg BW) could be injected in a tail vein in a total volume of approximately 100 μL. […] No sedative premedication was used for the mice in this experiment to avoid the possible induction of microsomal liver enzymes that could modify ITZA metabolism. Thus, the animals were unanesthetized, being only physically restrained during and immediately following the drug injection.
(§5) Blood samples (0.5-1.0 mL) were drawn through cardiac puncture into heparinized tubes at selected time points prior to the drug infusion (“blank”), and from 5 min to 1 hour after drug injection for determination of ITZA concentrations, and for 5 min to about 7 hrs in the POSA experiment. The mice were exposed to 2% -4% isoflurane for general anesthesia. Blood samples were obtained through cardiac puncture and immediately deposited in heparinized microcentrifuge tubes.

[4] = Plasma pharmacology after IV injection in mice
Procedure: as §1, §2, §3, §4, §5

[5] = POSA in H3G/5% Dextrose., 24 hr

## CC[C@@H]([C@H](C)O)n1ncn(-c2ccc(N3CCN(c4ccc(OC[C@@H]5CO[C@@](Cn6cncn6)(c6ccc(F)cc6F)C5)cc4)CC3)cc2)c1=O [POSA, posaconazole]
[1]; solvent H3D (no benzyl alcohol), solvent H3D (no benzyl alcohol), single determination, read-out: Azole solubility, [Drug] mg/mL
  solubility at 30 min: 33.8 mg/mL (≈ 48.2 mM)
[1]; solvent H3D (no benzyl alcohol), solvent H3D (no benzyl alcohol), read-out: Azole solubility, Average mg/mL
  solubility at 30 min: 35.3 mg/mL (≈ 50.4 mM)
[1]; solvent H3D (no benzyl alcohol), single determination
  Azole solubility, [Drug] mg/mL: 35.08 mg/mL and 37.14 mg/mL
[1]; solvent H3G (no benzyl alcohol), solvent H3G (no benzyl alcohol), single determination, read-out: Azole solubility, [Drug] mg/mL
  solubility at 30 min: 30.6 mg/mL (≈ 43.7 mM)
[1]; solvent H3G (no benzyl alcohol), solvent H3G (no benzyl alcohol), read-out: Azole solubility, Average mg/mL
  solubility at 30 min: 32.2 mg/mL (≈ 45.9 mM)
[1]; solvent H3G (no benzyl alcohol), single determination
  Azole solubility, [Drug] mg/mL: 33.86 mg/mL and 32.04 mg/mL
[2]; POSA in H3G, 0 hr
  % of 0 hr: 100%
  average: 3.70 mg/mL
  POSA concentration: 3.76 and 3.69 and 3.66
[2]; POSA in H3G, 2 hr
  % of 0 hr: 102%
  average: 3.78 mg/mL
  POSA concentration: 3.93 and 3.73 and 3.67
[2]; POSA in H3G, 4 hr
  % of 0 hr: 114%
  average: 4.23 mg/mL
  POSA concentration: 3.98 and 4.33 and 4.37
[2]; POSA in H3G, 6 hr
  % of 0 hr: 114%
  average: 4.23 mg/mL
  POSA concentration: 3.98 and 4.33 and 4.37
[2]; POSA in H3G, 8 hr
  % of 0 hr: 97%
  average: 3.57 mg/mL
  POSA concentration: 3.68 and 3.47 and 3.57
[2]; POSA in H3G, 24 hr
  % of 0 hr: 99%
  average: 3.65 mg/mL
  POSA concentration: 3.73 and 3.52 and 3.70
[2]; POSA in H3G/5% Dextrose., 0 hr
  % of 0 hr: 100%
  POSA concentration: 1.76 and 1.68
[2]; POSA in H3G/5% Dextrose., 2 hr
  % of 0 hr: 109%
  POSA concentration: 1.84 and 1.81 and 2.02
[2]; POSA in H3G/5% Dextrose., 4 hr
  % of 0 hr: 113%
  POSA concentration: 1.92 and 1.91 and 2.03
[2]; POSA in H3G/5% Dextrose., 6 hr
  % of 0 hr: 109%
  POSA concentration: 1.75 and 1.93 and 2.01
[2]; POSA in H3G/5% Dextrose., 8 hr
  % of 0 hr: 106%
  POSA concentration: 1.71 and 1.89 and 1.92
[2]; [5]
  % of 0 hr: 105%
  POSA concentration: 1.78 and 1.80 and 1.87
[2]; POSA in H3d, 0 hr
  % of 0 hr: 100%
  average: 3.78 mg/mL
  POSA concentration: 3.82 and 3.75 and 3.78
[2]; POSA in H3d, 2 hr
  % of 0 hr: 100%
  average: 3.79 mg/mL
  POSA concentration: 3.67 and 3.81 and 3.89
[2]; POSA in H3d, 4 hr
  % of 0 hr: 112%
  average: 4.24 mg/mL
  POSA concentration: 4.00 and 4.15 and 4.56
[2]; POSA in H3d, 6 hr
  % of 0 hr: 118%
  average: 4.45 mg/mL
  POSA concentration: 4.20 and 4.32 and 4.82
[2]; POSA in H3d, 8 hr
  % of 0 hr: 106%
  average: 3.99 mg/mL
  POSA concentration: 4.18 and 3.77 and 4.03
[2]; POSA in H3d, 24 hr
  % of 0 hr: 101%
  average: 3.83 mg/mL
  POSA concentration: 3.81 and 3.75 and 3.92
[2]; POSA in H3d/5% Dextrose, 0 hr
  % of 0 hr: 100%
  POSA concentration: 1.75 and 1.77 and 1.81
[2]; POSA in H3d/5% Dextrose, 2 hr
  % of 0 hr: 100%
  POSA concentration: 1.77 and 1.74 and 1.83
[2]; POSA in H3d/5% Dextrose, 4 hr
  % of 0 hr: 111%
  POSA concentration: 1.88 and 1.81 and 2.20
[2]; POSA in H3d/5% Dextrose, 6 hr
  % of 0 hr: 109%
  POSA concentration: 1.95 and 1.93 and 1.94
[2]; POSA in H3d/5% Dextrose, 8 hr
  % of 0 hr: 102%
  POSA concentration: 1.86 and 1.68 and 1.90
[2]; POSA in H3d/5% Dextrose, 24 hr
  % of 0 hr: 103%
  POSA concentration: 1.78 and 1.79 and 1.93
[3]; literature (Ref 24, 32, 42, 45)
  known plasma half-life: 25 to 35 h
[3]; oral drug, literature
  half-life after oral administration: 15 to 30 h
In vivo
  half-life: 6 to 7 h
[4]; 5.0 mg/kg BW, slow injection over 3-4 min
  tolerability of IV injection (in words): well accepted
[4]; 5 mg/kg IV
  apparent in vivo half-life: 6 to 7 h
[4]; IV dose of 5 mg/kg
  time plasma concentrations remain in the fungi-toxic range: in excess of one hour
[4]; IV injection of 5 mg/kg over 4 min
  peak concentration (plasma): 3.2 to 3.3 µg/mL
